The source made the active and inactive calls. The calls are words filed in the database; no cut-off is given here.
Experiments:
[1] = Antioxidant activity assessed as reducing capacity of DTNB at 20 uM after 30 mins in presence of Cu2++; assay type: functional; set-up: scale not given: the % may be the effect or the level left
[2] = Antioxidant activity assessed as reducing capacity of Iodine solution at 0.25mM after 30 mins in presence of Cu2++; assay type: functional; set-up: scale not given: the % may be the effect or the level left
[3] = Antioxidant activity assessed as ABTS radical scavenging activity at 4 uM after 30 mins in presence of Cu2++; assay type: functional
[4] = test system: Radical scavenging activity; assay: Antioxidant activity assessed as DPPH radical scavenging activity at 36 uM after 30 mins in presence of Cu2++; assay type: functional
[5] = Antioxidant activity assessed as reducing capacity of DTNB at 20 uM after 60 mins in presence of Cu2++; assay type: functional
[6] = Antioxidant activity assessed as reducing capacity of Iodine solution at 0.25 mM after 60 mins in presence of Cu2++; assay type: functional
[7] = Antioxidant activity assessed as reducing capacity of Iodine solution at 0.25 mM after 120 mins in presence of Cu2++; assay type: functional
[8] = Induction of ascorbic acid oxidation preincubated for 3 mins in presence of Cu2++; assay type: physicochemical; set-up: concentration or dose not given beside the values; settings: 0.05 h
[9] = Induction of ascorbic acid oxidation preincubated for 30 mins in presence of Cu2++; assay type: physicochemical; set-up: concentration or dose not given beside the values; settings: 0.5 h
[10] = Induction of ascorbic acid oxidation preincubated for 60 mins in presence of Cu2++; assay type: physicochemical; set-up: concentration or dose not given beside the values; settings: 1 h
[11] = Induction of ascorbic acid oxidation preincubated for 300 mins in presence of Cu2++; assay type: physicochemical; set-up: concentration or dose not given beside the values; settings: 5 h
[12] = Effect on CU2+-mediated superoxide-dependent cytochrome c reduction at 10 to 30 uM; assay type: physicochemical
[13] = Effect on CU2+-mediated superoxide-dependent lucigenin reduction by chemiluminescence assay at 10 to 30 uM; assay type: physicochemical
[14] = Antioxidant activity assessed as ABTS radical scavenging activity after 30 mins in absence of Cu2+; assay type: functional
[15] = test system: Radical scavenging activity; assay: Antioxidant activity assessed as DPPH radical scavenging activity after 40 mins in absence of Cu2+; assay type: functional
[16] = Antioxidant activity assessed as ABTS radical scavenging activity at 4 uM after 3 mins in presence of Cu2+; assay type: functional
[17] = test system: Radical scavenging activity; assay: Antioxidant activity assessed as DPPH radical scavenging activity at 36 uM after 3 mins in presence of Cu2++; assay type: functional

Compound	Activity [1] [%]	Activity [2] [%]	Activity [3] [%]	Activity [4] [%]	Activity [5]	Activity [6]	Activity [7]	Activity [8] [%]	Activity [9] [%]	Activity [10] [%]	Activity [11] [%]	Activity [12]	Activity [13]	Activity [14]	Activity [15]	Activity [16]	Activity [17]
N[C@@H](CS)C(=O)NCC(=O)O	0	20	33	88	Active	Active	inactive	79.8	92.28	94.31	94.33	Active	Active	Dose-dependent effect	Dose-dependent effect	Active	Active
N[C@@H](CCC(=O)N[C@@H](CS)C(=O)O)C(=O)O	26	24	29	54				81.4	87.4	89.6	97.6	Active		Dose-dependent effect	Dose-dependent effect	Active	Active
N[C@@H](CS)C(=O)O [CYSTEINE]	24	23	44	92				74.35	77.34	80.35	80.36	Active		Dose-dependent effect	Dose-dependent effect	Active	Active
N[C@@H](CCC(=O)N[C@@H](CS)C(=O)NCC(=O)O)C(=O)O [GLUTATHIONE]	36	31	55	76				81.3	83.2	84.2	85.4	Active	Active	Dose-dependent effect	Dose-dependent effect	Active	Active
N[C@@H](CCS)C(=O)O [L-HOMOCYSTEINE]	40	30	31	72				81.1	84.1	86.1	85.3	Active	Active	Dose-dependent effect	Dose-dependent effect	Active	Active
